Measured values reported in patent US20190119200A1, “TERTIARY AMIDES AND METHOD OF USE” (AbbVie Inc., priority 2016, published 2019).

What was measured:
LPAR1 = target: T1, LPAR1 (Homo sapiens, UniProt Q92633); assay: LPAR1 FLIPR Assay; format: cell-based; details: U2OS cells stably expressing LPAR1, LPA (EC80), Calcium 6 FLIPR dye; for Emax: read-out: Maximum Inhibition
T1 construct: host or cells: U2OS
Description: U2OS cells stably expressing LPAR1 (Life Technologies #K1519A) were plated at 12000 cells/well in growth medium (McCoy's 5A medium(Life Technologies 16600-082)) with 10% dFBS (Life Technologies 26400-036), 0.1 mM non-essential amino acids, 25 mM HEPES, 1 mM sodium pyruvate, 1% penicillin/streptomycin, 50 μg/mL hygromycin, and 100 μg/mL Geneticin® in black-walled, clear-bottom 384-well plates (Corning #3683) and incubated in humidified 5% CO2 at 37° C. overnight. On the day of the assay, medium was removed and 30 μL of 5% Calcium 6 FLIPR dye in assay buffer-HBSS (Life Technologies #14025) containing 20 mM HEPES (Life Technologies #15630-080) was added to the cells. Cells were incubated at 37° C. in the dark for 2 hours. Compounds were 3-fold serial diluted from 10 mM for 11-points using dimethyl sulfoxide. 1 μL of compound in DMSO was diluted in 82.3 μL assay buffer immediately before the assay. Using a FLIPR® TETRA® system, 15 μL of the (4×) compound solutions were first added to the cells, then 15 μL of LPA (EC80) diluted in of assay buffer supplemented with 0.1% BSA was added 3 minutes later to activate the receptor. Changes in fluorescence were measured at wavelengths of 515-575 nm over the course of the experimental run. IC50 values were calculated from curve fits of the ratio data using a four-parameter logistic Hill equation (Assay Explorer 3.3 Client).

[1] = system: LPA-induced MCP-1 in NRK-49F cells; assay: LPA-induced MCP-1 AlphaLISA assay; format: cell-based; details: Rattus norvegicus, final LPA 10 μM, 7 hours; for Emax: read-out: Maximum Inhibition
Description: Two days prior to the experiment, NRK-49F cells were plated at 8,000 cells/well in 100 μL of growth medium [DMEM (Life Technologies #11995) with 5% dFBS (Life Technologies #30067-334), 100 units/mL penicillin/streptomycin (Life Technologies #15140122)] in 96-well clear flat bottom polystyrene TC-treated microplate (Corning® #3599) and incubated in humidified 10% CO2 at 37° C. One day prior to the experiment, the cell medium was removed and serum free medium [100 μL/well, DMEM (Life Technologies #11995) with 0.1% fatty acid free BSA (Sigma #A6003)] was added with continued incubation in humidified 10% CO2 at 37° C. overnight. On the day of the assay, test compounds were 1:3 serially diluted in 100% DMSO using a BioTek Precision™ system and then transferred (equivalent volume of DMSO as controls) to a plate in serum free medium [DMEM with 0.1% fatty acid free BSA] using a Biomek® NX workstation to give a 2× compound solution. The cell culture medium was removed, and cells were pre-treated with 50 μL/well of 2× compound in serum free medium [DMEM with 0.1% fatty acid free BSA] at 37° C. for 30 minutes. Following the incubation, 50 μL/well of 20 μM LPA diluted in serum free medium [DMEM with 0.1% fatty acid free BSA] was added to the cells. Serum free medium [DMEM with 0.1% fatty acid free BSA] was used as substitution for low control wells while 20 µM LPA was added to high control wells and test compound wells. 200 µM LPA was added to EC100 wells. Final DMSO concentration was 1% in every well. Final LPA concentration in test compound wells and high control wells was 10 μM. […] After the incubation, cell supernatant was transferred to a new 96 well polypropylene plate (Greiner #651201) where it was sealed and stored at −80° C. On the detection day, 5 μL of thawed cell supernatant was transferred to a new white opaque 384-well microplate (Perkin Elmer #6007299). An AlphaLISA® mouse/rat CCL2/MCP1, Immunoassay Research kit (PerkinElmer #AL509F) was used. A mixture (20 μL/well) of AlphaLISA® Anti-Analyte Accept beads (10 μg/mL final) and Biotinylated Antibody Anti-Analyte (freshly prepared, 1 nM final) was added. The mixture in the wells was mixed and then incubated at room temperature for 1 hour. Then SA-Donor beads (25 μL/well, 40 μg/mL final) were added giving a final volume of 50 μL/well. The contents of the wells were mixed and then incubated at room temperature for 0.5 hour (protect from light). The plate was read using the default Envision™ Alpha protocol (PerkinElmer). IC50 values were calculated from curve fits of the ratio data using a four-parameter logistic Hill equation (Assay Explorer 3.3 Client).

T1 sequence (Q92633 whole entry): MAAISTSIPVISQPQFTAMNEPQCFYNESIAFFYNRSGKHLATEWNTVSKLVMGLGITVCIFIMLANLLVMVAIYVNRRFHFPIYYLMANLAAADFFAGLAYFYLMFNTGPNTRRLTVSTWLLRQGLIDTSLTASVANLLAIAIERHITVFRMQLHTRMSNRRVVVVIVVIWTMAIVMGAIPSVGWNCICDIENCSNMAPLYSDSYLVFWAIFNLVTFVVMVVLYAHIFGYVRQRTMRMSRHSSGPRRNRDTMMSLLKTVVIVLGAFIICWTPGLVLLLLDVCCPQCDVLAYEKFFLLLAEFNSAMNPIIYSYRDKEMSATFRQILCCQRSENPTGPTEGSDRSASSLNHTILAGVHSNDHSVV

Row | SMILES | IC50 (LPAR1) [nM] | Emax (LPAR1) [%] | IC50 [1] [nM] | Emax [1] [%]
1 | CCS(=O)(=O)NC(=O)CCCCN(CCCc1ccccc1)C(=O)c1cc(OC)c(C)c(OC)c1 [Example 123, N-{5-[(ethanesulfonyl)amino]-5-oxopentyl}-3,5-dimethoxy-4-methyl-N-(3-phenylpropyl)benzamide] | 46 | 94 | 793 | 85
2 | COc1cc(C(=O)N(CCCCC(=O)NS(=O)(=O)c2ccncc2)CCCc2ccccc2)cc(OC)c1C [Example 143, 3,5-dimethoxy-4-methyl-N-{5-oxo-5-[(pyridine-4-sulfonyl)amino]pentyl}-N-(3-phenylpropyl)benzamide] | 81 | 83 | 1350 | 66
3 | COc1cc(OC)cc(C(=O)N(CCCCC(=O)O)CCCc2ccc(F)cc2)c1 [Example 148, 5-{(3,5-dimethoxybenzoyl)[3-(4-fluorophenyl)propyl]amino}pentanoic Acid] | > 10000 | 47 | > 10000 | 40
4 | Cn1cc(C(=O)N(CCCCC(=O)O)CCCc2ccccc2)c2ccccc2c1=O [Example 169, 5-[(2-methyl-1-oxo-1,2-dihydroisoquinoline-4-carbonyl)(3-phenylpropyl)amino]pentanoic Acid] | 3090 | 71 | – | –
5 | COc1cc(C(=O)N(CCCc2ccc(F)cc2)CCSCC(=O)O)cc(OC)c1C [Example 118, [(2-{(3,5-dimethoxy-4-methylbenzoyl)[3-(4-fluorophenyl)propyl]amino}ethyl)sulfanyl]acetic Acid] | 247 | 78 | – | –
6 | COc1cc(C(=O)N(CCCc2ccccc2)C(C)CCCC(=O)O)cc(OC)c1C (centres unmarked) [Example 164, 5-[(3,5-dimethoxy-4-methylbenzoyl)(3-phenylpropyl)amino]hexanoic Acid] | 237 | 76 | – | –
7 | O=C(O)CCCCN(CCCc1ccccc1)C(=O)C1(c2ccc(OC(F)(F)F)cc2)CC1 [Example 25, 5-[(3-phenylpropyl){1-[4-(trifluoromethoxy)phenyl]cyclopropane-1-carbonyl}amino]pentanoic Acid] | 29300 | 48 | – | –
8 | COc1cc(C(=O)N(CCCc2ccccc2)CC(=O)NCC(=O)O)cc(OC)c1C [Example 51, N-(3,5-dimethoxy-4-methylbenzoyl)-N-(3-phenylpropyl)glycylglycine] | 238 | 62 | – | –
9 | O=C(O)CCCCN(CCCc1ccccc1)C(=O)C1(c2ccc3c(c2)OCO3)CC1 [Example 27, 5-{[1-(2H-1,3-benzodioxol-5-yl)cyclopropane-1-carbonyl](3-phenylpropyl)amino}pentanoic Acid] | 1060 | 65 | – | –
10 | O=C(O)CCCCN(CCCc1ccccc1)C(=O)c1ccc2c(c1)OCCCO2 [Example 23, 5-[(3,4-dihydro-2H-1,5-benzodioxepine-7-carbonyl)(3-phenylpropyl)amino]pentanoic Acid] | 12600 | 53 | – | –
11 | O=C(O)CCCCN(CCCc1ccccc1)C(=O)C1(c2ccncc2)CC1 [Example 64, 5-{(3-phenylpropyl)[1-(pyridin-4-yl)cyclopropane-1-carbonyl]amino}pentanoic Acid] | 1230 | 54 | – | –
12 | COc1cc(C(=O)N(CCCc2ccccc2)CCSCC(=O)O)cc(OC)c1F [Example 100, ({2-[(4-fluoro-3,5-dimethoxybenzoyl)(3-phenylpropyl)amino]ethyl}sulfanyl)acetic Acid] | > 30000 | 60 | – | –
13 | COc1ccc(C2(C(=O)N(CCCCC(=O)O)CCCc3ccccc3)CCCC2)cc1 [Example 106, 5-{[1-(4-methoxyphenyl)cyclopentane-1-carbonyl](3-phenylpropyl)amino}pentanoic Acid] | 766 | 55 | – | –
14 | COc1cc(C(=O)N(CCCCC(=O)O)CCCc2ccc(C)o2)cc(OC)c1C(F)(F)F [Example 177, 5-{[3,5-dimethoxy-4-(trifluoromethyl)benzoyl][3-(5-methylfuran-2-yl)propyl]amino}pentanoic Acid] | 235 | 57 | – | –
15 | COc1cc(C(=O)N(CCCc2ccc(F)cc2F)CCSCC(=O)O)cc(OC)c1C [Example 114, [(2-{[3-(2,4-difluorophenyl)propyl](3,5-dimethoxy-4-methylbenzoyl)amino}ethyl)sulfanyl]acetic Acid] | 671 | 76 | – | –
16 | COc1cc(C(=O)N(CCCc2ccccc2)CC[S+]([O-])CC(=O)O)cc(OC)c1C (centres unmarked) [Example 53, {2-[(3,5-dimethoxy-4-methylbenzoyl)(3-phenylpropyl)amino]ethanesulfinyl}acetic Acid] | 239 | 63 | – | –

More lines, main results first:

Row | IC50 (LPAR1) [nM] | Emax (LPAR1) [%] | IC50 [1] [nM] | SMILES | Emax [1] [%]
17 | 942 | 41 | – | CCOc1cc(C(=O)N(CCCCC(=O)O)CCCc2ccccc2)ccn1 [Example 14, 5-[(2-ethoxypyridine-4-carbonyl)(3-phenylpropyl)amino]pentanoic Acid] | –
18 | 985 | 70 | – | Cc1c(Cl)cc(C(=O)N(CCCCC(=O)O)CCCc2ccccc2)cc1Cl [Example 16, 5-[(3,5-dichloro-4-methylbenzoyl)(3-phenylpropyl)amino]pentanoic Acid] | –
19 | 1460 | 63 | – | Cc1cc(C(=O)N(CCCCC(=O)O)CCCc2ccccc2)c2c(C)noc2n1 [Example 172, 5-[(3,6-dimethyl[1,2]oxazolo[5,4-b]pyridine-4-carbonyl)(3-phenylpropyl)amino]pentanoic Acid] | –
20 | 244 | 57 | – | COc1cc(C(=O)N(CCCCC(=O)O)CCCc2ccccc2)nc(OC)n1 [Example 163, 5-[(2,6-dimethoxypyrimidine-4-carbonyl)(3-phenylpropyl)amino]pentanoic Acid] | –
21 | 3240 | 55 | – | O=C(O)CCCCN(CCCc1ccccc1)C(=O)c1cc(Cl)cc(Cl)c1 [Example 12, 5-[(3,5-dichlorobenzoyl)(3-phenylpropyl)amino]pentanoic Acid] | –
22 | 8020 | 63 | – | Cc1nc2c(C(=O)N(CCCCC(=O)O)CCCc3ccccc3)cccc2c(=O)[nH]1 [Example 160, 5-[(2-methyl-4-oxo-3,4-dihydroquinazoline-8-carbonyl)(3-phenylpropyl)amino]pentanoic Acid] | –
23 | 5020 | 49 | – | COc1ccc2c(C(=O)N(CCCCC(=O)O)CCCc3ccccc3)c[nH]c2c1 [Example 65, 5-[(6-methoxy-1H-indole-3-carbonyl)(3-phenylpropyl)amino]pentanoic Acid] | –
24 | 6170 | 48 | – | COc1c(F)cc(C(=O)N(CCCCC(=O)O)CCCc2ccccc2)cc1F [Example 13, 5-[(3,5-difluoro-4-methoxybenzoyl)(3-phenylpropyl)amino]pentanoic Acid] | –
25 | 293 | 91 | – | COc1cc(C(=O)N(CCCCC(=O)O)CCCc2ccccc2)cc(OC)c1OCCO [Example 88, 5-{[4-(2-hydroxyethoxy)-3,5-dimethoxybenzoyl](3-phenylpropyl)amino}pentanoic Acid] | –
